In patent US10729710B2, “Catecholamine prodrugs for use in the treatment of Parkinson's disease” (H. Lundbeck A/S, priority 2017, dated 2020):
Structures can show the parent of a compound that is named as a salt.

What was measured:
[1] = PK experiments in rats: plasma compound (I) after oral dosing of prodrugs; format: in vivo, Han Wistar rats; conditions: Wistar rats, FIG. 2, doses equal to 287 μg/kg of compound (I)
Protocol: (§1) Plasma was placed on water-ice following collection. Final storage at approximately −70° C.
Mobile phase B: Acetonitrile. […] Flow rate 0.5 mL/min.
The rats had unrestricted access to the diet.
Mobile phase B: Acetonitrile+0.2% formic acid. […] Flow rate 0.3 mL/min.
Han Wistar rats were supplied by Envigo, UK. […] The rats received a standard laboratory diet Teklad 2014C. The rats had unrestricted access to the diet.

hepatocytes from rat = assay: Conversion to compound (I) in rat hepatocytes; format: in vitro ADME; conditions: 1 μg/mL, 37° C., 0.25-60 minutes, FIG. 7a
Protocol: (§2) The cell concentration at incubation was 1×10^6 viable cells/mL. The incubations were performed in glass tubes at 37° C. with a total incubation volume of 3.5 mL and with duplicate incubations for each test item. The 3.5 mL of hepatocyte suspension was equilibrated for 10 minutes in a water bath set to 37° C. where after the incubations were initiated by adding 3.5 μL of a stock solution of the test item in DMSO (Dimethyl sulfoxide) and gently inverting the tubes. The final solvent concentration in the incubations was 0.1% DMSO. Samples of 600 μL were withdrawn from the incubations at the pre-determined time points of 0.25, 5, 15, 30 and 60 minutes after ensuring homogeneity of hepatocyte suspensions. The withdrawn volume was added to 1 mL Nunc cryo tubes on wet ice containing 60 μL of ice cold ascorbic acid (100 mg/mL) and 30 μL of ice cold 100 mM saccharic acid 1.4-lactone in 0.5 M citric acid. The tubes were mixed and 35 μL of a solution of ice cold 20% formic acid was added. The tubes were mixed thoroughly and stored at −80° C. awaiting analysis. Analysis method and Instrumentation used for analysis of (I) from dosing (Id-ia), (Id-ib), (Id-iia) and (Id-iib), were the one described in Examples 4 and 5 below in the section “Instrumentation used for analysis of compound (I) from dosing of compounds (Ic), (Id-ia), (Id-ib), (Id-iia), (Id-iib), (Id-iab) and (Id-iiab).”
(§3) Analysis method and Instrumentation used for analysis of (I) from dosing (Id-iab) and (Id-iiab) consisted of mixing equal aliquots of the samples and precipitation solution (acetonitrile (MeCN) with 10% methanol (MeOH) and 1% formic acid), followed by centrifugation at 4° C. at 16000 g for 10 minutes. Supernatants were collected and analysed by LC-MS/MS. Mass spectrometer: Waters Acquity—Waters Xevo TQ-MS. Analytical column: Acquity UPLC HSS T3, 100×2.1 mm, 1.8 μm. Mobile phase A: 0.2% formic acid in water. Mobile phase B: 0.2% formic acid in acetonitrile. Gradient run from 95/5% to 60/40 in 5 min. Flow rate 0.3 mL/min. MRM monitoring of (I) in the study samples and in the analytical standards.

human 5-HT2B receptor [2] = target: T1, human 5-HT2B receptor (Homo sapiens (Human), UniProt P41595); assay: 5-HT2B radioligand binding assay ([125I](±)DOI); conditions: 0.2 nM [125I](±)DOI, read-out: 5-HT2B binding affinity (% inhibition of control, specific binding at concentration indicated)
T1 sequence (P41595 whole entry): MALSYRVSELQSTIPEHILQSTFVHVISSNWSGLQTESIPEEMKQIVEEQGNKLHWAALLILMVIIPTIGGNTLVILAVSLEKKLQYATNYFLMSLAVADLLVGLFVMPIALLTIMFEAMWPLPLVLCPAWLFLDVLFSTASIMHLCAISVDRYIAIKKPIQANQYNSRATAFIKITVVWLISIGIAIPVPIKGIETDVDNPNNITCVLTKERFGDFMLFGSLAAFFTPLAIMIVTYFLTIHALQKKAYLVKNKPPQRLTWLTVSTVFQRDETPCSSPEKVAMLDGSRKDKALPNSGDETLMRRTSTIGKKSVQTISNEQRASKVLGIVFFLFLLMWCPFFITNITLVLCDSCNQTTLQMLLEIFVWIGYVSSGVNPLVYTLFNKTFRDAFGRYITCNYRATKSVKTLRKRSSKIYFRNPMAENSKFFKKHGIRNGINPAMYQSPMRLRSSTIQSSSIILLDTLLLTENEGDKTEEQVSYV
Protocol: Membrane homogenates prepared from CHO cells expressing the human 5HT2B receptor were incubated for 60 min at room temperature with 0.2 nM [125I](±)DOI (1-(4-iodo-2, 5-dimethoxyphenyl)propan-2-amine) in the absence or presence of the test compound in a buffer containing 50 mM Tris-HCl (pH 7.4), 5 mM MgCl2, 10 μM pargyline and 0.1% ascorbic acid. Nonspecific binding is determined in the presence of 1 μM (±)DOI. Following incubation, the samples were filtered rapidly under vacuum through glass fiber filters (GF/B, Packard) presoaked with 0.3% polyethyleneimine (PEI) and rinsed several times with ice-cold 50 mM Tris-HCl using a 96-sample cell harvester (Unifilter, Packard). The filters were dried and counted for radioactivity in a scintillation counter (Topcount, Packard) using a scintillation cocktail (Microscint 0, Packard). The results are expressed as a percent inhibition of the control radioligand specific binding. The standard reference compound was (±)DOI, which was tested in each experiment at several concentrations to obtain a competition curve from which its IC50 is calculated.

hepatocytes from human = assay: Conversion to compound (I) in human hepatocytes; format: in vitro ADME; conditions: 1 μg/mL, 37° C., 0.25-60 minutes, FIG. 7b
Protocol: as §2, §3

[3] = Liu et al., Bioorganic Med. Chem. (2008); cited from earlier work
human 5-HT2B receptor [4] = target: T1, human 5-HT2B receptor; assay: 5-HT2B agonist activity assay (IP1 production, HTRF); format: cell-based; conditions: read-out: 5-HT2B Emax
Protocol: Evaluation of the agonist activity of compounds (I), (Ia) and (Ib) at the human 5-HT2B receptor was performed by Eurofins/Cerep (France) measuring the compound effects on inositol monophosphate (IP1) production using the HTRF detection method. Briefly, the human 5-HT2B receptor was expressed in transfected CHO cells. The cells were suspended in a buffer containing 10 mM Hepes/NaOH (pH 7.4), 4.2 mM KCl, 146 mM NaCl, 1 mM CaCl2, 0.5 mM MgCl2, 5.5 mM glucose and 50 mM LiCl, then distributed in microplates at a density of 4100 cells/well and incubated for 30 min at 37° C. in the presence of buffer (basal control), test compound or reference agonist. For stimulated control measurement, separate assay wells contained 1 μM 5-HT. Following incubation, the cells were lysed and the fluorescence acceptor (fluorophen D2-labeled IP1) and fluorescence donor (anti-IP1 antibody labeled with europium cryptate) were added. After 60 min at room temperature, the fluorescence transfer was measured at lambda(Ex) 337 nm and lambda(Em) 620 and 665 nm using a microplate reader (Rubystar, BMG). The IP1 concentration was determined by dividing the signal measured at 665 nm by that measured at 620 nm (ratio). The results were expressed as a percent of the control response to 1 μM 5-HT. The standard reference agonist was 5-HT, which was tested in each experiment at several concentrations to generate a concentration-response curve from which its EC50 value is calculated as described above for dopamine functional assays.

human D2 receptor = human D2 receptor (Homo sapiens (Human), UniProt P14416); assay: Dopamine D2 receptor agonism, calcium mobilization assay; format: cell-based; conditions: normalized to 1 μM dopamine = 100%
Sequence of human D2 receptor (P14416 whole entry): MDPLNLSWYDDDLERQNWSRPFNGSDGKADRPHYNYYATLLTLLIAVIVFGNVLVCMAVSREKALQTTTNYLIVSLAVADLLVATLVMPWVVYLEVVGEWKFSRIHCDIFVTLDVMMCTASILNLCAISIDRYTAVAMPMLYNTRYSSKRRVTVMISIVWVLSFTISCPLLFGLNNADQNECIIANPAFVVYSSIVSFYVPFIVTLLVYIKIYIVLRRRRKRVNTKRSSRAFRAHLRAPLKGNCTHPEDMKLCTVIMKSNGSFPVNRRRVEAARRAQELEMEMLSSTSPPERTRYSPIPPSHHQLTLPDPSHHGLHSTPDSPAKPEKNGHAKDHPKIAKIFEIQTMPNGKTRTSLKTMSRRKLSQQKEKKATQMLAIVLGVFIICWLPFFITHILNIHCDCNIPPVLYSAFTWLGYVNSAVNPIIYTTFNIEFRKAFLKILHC
Protocol: Dopamine D2 receptor agonism was measured using a calcium mobilization assay protocol developed by HD Biosciences (China). Briefly, HEK293/G15 cells expressing human D2 receptor were plated at a density of 15000 cells/well in clear-bottomed, Matrigel-coated 384-well plates and grown for 24 hrs at 37° C. in the presence of 5% CO2. The cells were incubated with calcium-sensitive fluorescent dye, Fluo8, for 60-90 minutes at 37° C. in the dark. Test compounds were prepared at 3-fold concentrated solution in 1×HBSS buffer with Ca^2+ and Mg^2+. Calcium Flux signal was immediately recorded after compounds were added from compound plate to cell plate at FLIPR (Molecular Devices). The fluorescence data were normalized to yield responses for no stimulation (buffer) and full stimulation (1 μM of dopamine) of 0% and 100% stimulation, respectively. Test compound potency (EC50) was estimated by nonlinear regression using the sigmoidal dose-response (variable slope) using Xlfit 4 (IDBS, Guildford, Surrey, UK, model 205). y=(A+((B−A)/(1+((C/x)^D)))) where y is the normalized ratio measurement for a given concentration of test compound, x is the concentration of test compound, A is the estimated efficacy at infinite compound dilution, and B is the maximal efficacy. C is the EC50 value and D is the Hill slope coefficient. EC50 estimates were obtained from independent experiment and the logarithmic average was calculated.

human D1 receptor = human D1 receptor (Homo sapiens (Human), UniProt P21728); assay: Dopamine D1 receptor agonism, HTRF cAMP assay; format: cell-based; conditions: normalized to 30 uM dopamine = 100%
Sequence of human D1 receptor (P21728 whole entry): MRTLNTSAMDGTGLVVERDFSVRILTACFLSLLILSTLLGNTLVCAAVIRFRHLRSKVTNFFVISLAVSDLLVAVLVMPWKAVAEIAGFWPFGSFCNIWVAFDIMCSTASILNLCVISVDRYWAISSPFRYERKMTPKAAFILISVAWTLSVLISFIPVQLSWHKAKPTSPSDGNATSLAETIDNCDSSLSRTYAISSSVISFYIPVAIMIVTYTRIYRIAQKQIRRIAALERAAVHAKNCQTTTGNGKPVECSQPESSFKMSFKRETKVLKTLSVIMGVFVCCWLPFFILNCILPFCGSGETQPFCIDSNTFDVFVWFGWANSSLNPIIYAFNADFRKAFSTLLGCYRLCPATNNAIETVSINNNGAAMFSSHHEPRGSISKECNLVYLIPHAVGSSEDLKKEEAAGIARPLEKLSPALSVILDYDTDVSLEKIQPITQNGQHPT
Protocol: Dopamine D1 receptor agonism was measured using a HTRF cAMP from CisBio using the protocol developed by HD Biosciences (China). Briefly, the assay is a homogeneous time resolved-fluorescence resonance energy transfer (HTRF) assay that measures production of cAMP by cells in a competitive immunoassay between native cAMP produced by cells and cAMP-labeled with XL-665. A cryptate-labeled anti-cAMP antibody visualizes the tracer. The assay was performed in accordance with instructions from manufacturer.
Test compounds were added to wells of microplates (384 format). HEK-293 cells expressing the human D1 receptor were plated at 1000 cells/well and incubated 30 min at room temperature. cAMP-d2 tracer was added to wells and followed by addition of Anti-cAMP antibody-cryptate preparation and incubated for 1 h at room temperature in dark. HTRF cAMP was measured by excitation of the donor with 337 nm laser (the “TRF light unit”) and subsequent (delay time 100 microseconds) measurement of cryptate and d2 emission at 615 nm and 665 nm over a time window of 200 microseconds with a 2000 microseconds time window between repeats/100 flashes). HRTF measurements were performed on an Envision microplate reader (PerkinElmer). The HTRF signal was calculated as the emission-ratio at 665 nm over 615 nm. The HTRF ratio readout for test compounds was normalized to 0% and 100% stimulation using control wells with DMSO-solvent or 30 uM dopamine. Test compound potency (EC50) was estimated by nonlinear regression using the sigmoidal dose-response (variable slope) using Xlfit 4 (IDBS, Guildford, Surrey, UK, model 205). y=(A+((B−A)/(1+((C/x)^D)))) where y is the normalized HTRF ratio measurement for a given concentration of test compound, x is the concentration of test compound, A is the estimated efficacy at infinite compound dilution, and B is the maximal efficacy. C is the EC50 value and D is the Hill slope coefficient. EC50 estimates were obtained from an independent experiment and the logarithmic average was calculated. Dopamine D2 Receptor Agonism

[5] = male, Han Wistar, rat, in vivo, po, 4 h
Protocol: as §1
Mass spectrometer (UPCLC-MS/MS) Waters Acquity I-Class-Waters Xevo TQ-S. Analytical column Acquity HSS T3 C18 50×2.1 mm, 1.8 μm. Mobile phase A: 10 mM NH4-Formate 0.2% formic acid:Acetonitril (95:5). Mobile phase B: 10 mM NH4-Formate 0.2% formic acid:Acetonitril (5:95). Gradient run from 95/5% to 5/95% in 2.40 min. Flow rate 0.3 mL/min. MRM detection of test items and the added analytical standards
The rats had unrestricted access to the diet. Male Han Wistar rats were administered a single dose of apomorphine either subcutaneously or orally by gavage, or administered a single dose of apormorphine conjugates orally by gavage.

[6] = Stability of the disulfate in acidic conditions (LCMS); format: physicochemical; conditions: LCMS with acidic eluent
[7] = in man after oral dosing; cited from earlier work

CCCN1CCC[C@@H]2Cc3c(ccc(O[C@@H]4O[C@H](C(=O)O)[C@@H](O)[C@H](O)[C@H]4O)c3O[C@@H]3O[C@H](C(=O)O)[C@@H](O)[C@H](O)[C@H]3O)C[C@H]21 [(Id-iab), (2S,2′S,3S,3′S,4S,4′S,5R,5′R,6S,6′S)-6,6′-(((4aR,10aR)-1-propyl-1,2,3,4,4a,5,10,10a-octahydrobenzo[g]quinoline-6,7-diyl)bis(oxy))bis(3,4,5-trihydroxytetrahydro-2H-pyran-2-carboxylic acid)]
plasma profile of compound (I) after oral dosing (in words) [1]: slower absorption rate avoiding rapid peak concentrations accompanied by a sustained exposure of compound (I) in plasma | conversion to compound (I) in rat hepatocytes (hepatocytes from rat): time dependent conversion to compound (I) | inhibition at 10 µM (human 5-HT2B receptor [2]): 17% | conversion to compound (I) in human hepatocytes (hepatocytes from human): time dependent conversion to compound (I)

CCCN1CCC[C@@H]2Cc3c(ccc(O)c3O)C[C@H]21 [(I), (4aR,10aR)-1-n-Propyl-1,2,3,4,4a,5,10,10a-octahydro-benzo[g]quinoline-6,7-diol, reference compound]
oral bioavailability (in words) [3]: low oral bioavailability | Emax (human 5-HT2B receptor [4]): 50% | Emax (human D2 receptor): 91% | Emax (human D1 receptor): 99%

CN1CCc2cccc3c2[C@H]1Cc1ccc(O[C@@H]2O[C@H](C(=O)O)[C@@H](O)[C@H](O)[C@H]2O)c(O)c1-3 [(2S,3S,4S,5R,6S)-6-[[(6aR)-11-hydroxy-6-methyl-5,6,6a,7-tetrahydro-4H-dibenzo[de,g]quinolin-10-yl]oxy]-3,4,5-trihydroxy-tetrahydropyran-2-carboxylic acid]
apomorphine in plasma at one time point [5]: 916 pg/mL

CCCN1CCC[C@@H]2Cc3c(ccc(OS(=O)(=O)O)c3OS(=O)(=O)O)C[C@H]21 [(Id-iiab), (4aR,10aR)-1-propyl-1,2,3,4,4a,5,10,10a-octahydrobenzo[g]quinoline-6,7-diyl bis(hydrogen sulfate)]
plasma profile of compound (I) after oral dosing (in words) [1]: slower absorption rate avoiding rapid peak concentrations accompanied by a sustained exposure of compound (I) in plasma | stability in acidic conditions (in words) [6]: instability | conversion to compound (I) in rat hepatocytes (hepatocytes from rat): could not be detected | conversion to compound (I) in human hepatocytes (hepatocytes from human): could not be detected

CCCc1cc2c(s1)CN[C@@H]1CCc3cc(OC(C)=O)c(OC(C)=O)cc3[C@@H]21 [Adrogolide]
oral bioavailability [7]: ~4%
